Values quoted from earlier work, collected in patent US11787785B2 (NOVARTIS AG, priority 2021, dated 2023).
Read-outs that look alike come from different tables or passages of the source.

What was measured:
HbF [1] = details: ex vivo, human primary erythroid cells; cited from earlier work
HbF [2] = details: in vivo; cited from earlier work

Question: With `Nc1cccc2c1C(=O)N(C1CCC(=O)NC1=O)C2=O` (centres unmarked) [pomalidomide] as the molecule, how does the HbF induction (HbF [1]) read?
Answer: induce HbF

Question: And the HbF induction (HbF [2])?
Answer: induce HbF
